The test system of data set [1] is human SMCs. Nature of the data set: DNA synthesis assay ([3H]thymidine incorporation) in FBS-stimulated cultured SMCs. The data set is classed as cell-based. The settings on record: for DNA synthesis in SMCs: increasing concentrations of C-DIM. On the procedure:
(§1) Human SMCs were explanted from umbilical cord arteries. Cells were cultured in DMEM (Invitrogen Life Technology, Breda, The Netherlands) with 10% (v/v) fetal bovine serum (FBS) with penicillin and streptomycin (Invitrogen). Cells were used at passages five to seven. […] To determine cellular viability, cells were washed with PBS and subsequently incubated in medium in the presence of 0.5-mg/ml 3-(4,5-dimethylthiazol-2-yl)-2,5-diphenyltetrazolium bromide (MTT; Sigma Diagnostics, St. Louis). After two hours, medium was discarded, formazan crystals were dissolved in isopropanol and optical density was measured at 590 nm. Apoptosis was induced by incubating cells for 24 hours in medium with 0.25 μM staurosporine (Sigma). Subsequently, SMCs were fixed, stained with Hoechst dye and the relative number of apoptotic nuclei was determined.
SMCs were seeded in 24-well plates at 1−4×10^4 cells per well and reached 60% to 70% confluency after 24 hours. SMCs were made quiescent by incubation for 24 hours in FBS-free medium. 6-MP was dissolved in dimethylsulfoxide and applied one hour before FBS stimulation. SMCs were stimulated for 24 hours with 10% (v/v) FBS and subsequently cells were labeled for 18 hours with 0.25 μCi/well [methyl-3H]thymidine (Amersham Biosciences, Buckinghamshire, UK). Incorporated radioactivity was precipitated for 30 min at 4° C. with 10% (w/v) trichloroacetic acid, washed twice with 5% (w/v) trichloroacetic acid, and dissolved in 0.5 N NaOH (0.5 mL per well). Incorporated [^3H]thymidine was measured by liquid-scintillation counting.
(§2) The following small interfering (si)RNA sequences were used: Nur77 siRNA, 5′-CAG UCC AGC CAU GCU CCU C dTdT-3′, as described previously^20, and control siRNA, 5′-CAG ACG AGC CUU GCU CGU C dTdT-3′ (Ambion Inc., Austin, Tex.). Five μg of siRNA was transfected into 0.5−1×10^6 SMCs, using Nucleofector reagent for SMCs (Amaxa) as per the manufacturer's recommendations. Total mRNA was isolated five days after transfection, using the absolutely mRNA miniprep kit (Stratagene, La Jolla, Calif.). Subsequent cDNA synthesis was performed using the iScript cDNA synthesis kit (Biorad, Hercules, Calif.). Real-time polymerase chain reaction (PCR) was performed using SYBR green mix (Biorad) in the MyIQ System (Biorad). Primers for Nur77 were as follows: (forward) 5′-[…]-3′ and (reverse) 5′-[…]-3′. As a control for equal amount of first strand cDNA in different samples we corrected for Ribosomal Phosphoprotein (P0) mRNA levels, which were determined with the following primers (forward) 5′-[…]-3′ and (reverse) 5′-[…]-3′.
as §2, with “iscript” for “iScript”
(Incorporation of labelled thymidine or its analogues reports DNA synthesis.)

The subject of another data set is TR3-like factors. The following applies: Chintharlapalli et al., J Biol. Chem. 2005; cited from earlier work.
Data set [2] relates to human SMCs. Nature of the data set: SMC viability by MTT assay. The following applies: quiescent SMCs, 24 hours. The data set is classed as cell-based. How it is done: as §1
For data set [3], the system named is human SMCs. The data set can be described thus: Apoptosis of SMCs, Hoechst staining of nuclei. The data set is classed as cell-based. The settings on record: 24 hours. How it is done: as §1

As to `FC(F)(F)c1ccc(C(c2c[nH]c3ccccc23)c2c[nH]c3ccccc23)cc1` [C-DIM-CF3], the “DNA synthesis in SMCs” value in the data set with human SMCs [1] (serum) was “inhibit DNA synthesis in SMCs dose dependently”. The “activity of TR3-like factors” value with TR3-like factors was “increase the activity of TR3-like factors”.

`c1ccc(C(c2c[nH]c3ccccc23)c2c[nH]c3ccccc23)cc1` [C-DIM-H]: the “effectiveness in inhibiting DNA synthesis compared with the other C-DIMs” value with human SMCs [1] (serum, increasing concentrations) is on record as “less effective”. The “DNA synthesis in SMCs” value with human SMCs [1] (serum) is “inhibit DNA synthesis in SMCs dose dependently”. Besides, the “activity of TR3-like factors” value with TR3-like factors is “increase the activity of TR3-like factors”.

In the case of `COc1ccc(C(c2c[nH]c3ccccc23)c2c[nH]c3ccccc23)cc1` [C-DIM-OCH3], the “inhibition of DNA synthesis” value was 40.1% in the data set on human SMCs [1] (SMCs transfected with Nur77 (TR3)-specific siRNA) and 49.7% in the data set with human SMCs [1] (SMCs transfected with control siRNA). In addition, in the data set with human SMCs [1] (serum), the “DNA synthesis in SMCs” value is listed as “inhibit DNA synthesis in SMCs dose dependently”. Besides, the “activity of TR3-like factors” value with TR3-like factors is “increase the activity of TR3-like factors”.

For the compound `CN[C@@H]1C[C@H]2O[C@@](C)([C@@H]1OC)n1c3ccccc3c3c4c(c5c6ccccc6n2c5c31)C(=O)NC4` [staurosporine], in the data set on human SMCs [2], the “cellular viability / cytotoxicity (MTT)” value was “reduces cell viability” and the “reduction of number of viable cells (MTT)” value is given as 35%. Besides, in the data set on human SMCs [3] (SMCs, staurosporine 0.25 μM), the induction of apoptosis entry is listed as “induces apoptosis”. For the same compound, the “apoptosis (apoptotic nuclei)” value with human SMCs [3] (quiescent SMCs) was 50%±4%.

Source of the values: patent US20090035345A1, “Nuclear Receptors Agonists for Treatment of Atherosclerosis and/or Related Cardiovascular Disease” (ACADEMISCH MEDISCH CENTRUM, BUREAU, priority 2005, published 2009).
